According to patent US7138361B2, “Herbicidal heterocycles” (E. I. du Pont de Nemours and Company, priority 2000, dated 2006):

What was measured:
Format in all cases: in vivo
[1] = test system: woolly cupgrass (Eriochloa villosa); assay: Test C preemergence; details: for Plant response rating (0 to 100), Cupgrass, Woolly: Rate 250 g/ha, visual evaluation after 12 to 14 days
Outline: (§1)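 Compounds in non-phytotoxic solvent with surfactant applied preemergence to planted seeds and postemergence to plants at 1- to 4-leaf stage (2–18 cm). Kept in greenhouse 12–14 days, then visually rated against controls on a 0 (no effect) to 100 (complete control) scale.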

[2] = test system: pigweed (Amaranthus retroflexus); assay: Test C preemergence; details: for Plant response rating (0 to 100), Pigweed: Rate 250 g/ha, visual evaluation after 12 to 14 days
Outline: as §1

[3] = test system: crabgrass (Digitaria sanguinalis); assay: Test C preemergence; details: for Plant response rating (0 to 100), Crabgrass: Rate 250 g/ha, visual evaluation after 12 to 14 days
Outline: as §1

[4] = test system: cocklebur (Xanthium strumarium); assay: Test C preemergence
Outline: as §1

[5] = test system: Surinam grass (Brachiaria decumbens); assay: Test C preemergence; details: for Plant response rating (0 to 100), Surinam grass: Rate 250 g/ha, visual evaluation after 12 to 14 days
Outline: as §1

[6] = test system: common ragweed (Ambrosia elatior); assay: Test C preemergence; details: for Plant response rating (0 to 100), Ragweed, Common: Rate 250 g/ha, visual evaluation after 12 to 14 days
Outline: as §1

Nightshade = assay: Test C preemergence
soybean (Glycine max) = assay: Test C preemergence; details: for Plant response rating (0 to 100), Soybean: Rate 250 g/ha, visual evaluation after 12 to 14 days
Outline: as §1

[7] = test system: goosegrass (Eleusine indica); assay: Test C preemergence; details: for Plant response rating (0 to 100), Goosegrass: Rate 250 g/ha, visual evaluation after 12 to 14 days
Outline: as §1

[8] = test system: lambsquarters (Chenopodium album); assay: Test C preemergence; details: for Plant response rating (0 to 100), Lambsquarters: Rate 250 g/ha, visual evaluation after 12 to 14 days
Outline: as §1

[9] = test system: barnyardgrass (Echinochloa crus-galli); assay: Test B preemergence
Outline: (§2)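 Visual injury scores, 0 = no effect to 100 = complete control, assigned against controls after 13 to 15 days in the greenhouse. Compounds formulated in non-phytotoxic solvent plus surfactant and applied to soil after planting (pre) or onto foliage of 1- to 4-leaf plants (post).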

[10] = test system: morning glory (Ipomoea hederacea); assay: Test B preemergence
Outline: as §2

[11] = test system: velvetleaf (Abutilon theophrasti); assay: Test B preemergence
Outline: as §2

rice (Oryza saliva) = assay: Test B preemergence
Outline: as §2

[12] = test system: pigweed (Amaranthus retroflexus); assay: Test B preemergence
Outline: as §2

[13] = test system: crabgrass (Digitaria sanguinalis); assay: Test B preemergence
Outline: as §2

[14] = test system: cocklebur (Xanthium strumarium); assay: Test B preemergence
Outline: as §2

[15] = test system: Surinam grass (Brachiaria decumbens); assay: Test B preemergence
Outline: as §2

[16] = test system: giant foxtail (Setaria faberii); assay: Test B preemergence
Outline: as §2

corn (Zea mays) = assay: Test B preemergence
Outline: as §2

[17] = test system: lambsquarters (Chenopodium album); assay: Test B preemergence
Outline: as §2

[18] = Preemergence, Rate 500 g/ha, scale 0 to 100
[19] = Rate 62 g/ha, scale 0 to 100, 0 no effect, 100 complete control
[20] = preemergence, Rate 125 g/ha, scale 0 to 100, 0 no effect, 100 complete control
[21] = Rate 125 g/ha, scale 0 to 100, 0 no effect, 100 complete control
[22] = Preemergence, Rate 500 g/ha, scale 0 to 100, 0 no effect, 100 complete control
[23] = preemergence, Rate 125 g/ha, scale of 0 to 100 where 0 is no effect and 100 is complete control, 13 to 15 days

Structure (SMILES): CCC(C)c1ccn(C2SCN(c3cccc(OC(F)(F)F)c3)C2=O)n1 (centres unmarked) [Compound 40]
- Plant response rating, Cupgrass, Woolly [1, 18]: 100
- Plant response rating, Cupgrass, Woolly [1, 19]: 60
- Plant response rating (0 to 100), Cupgrass, Woolly ([1]; preemergence): 90
- Plant response rating, Cupgrass, Woolly [1, 20]: 90
- Plant response rating, Pigweed [2, 18]: 100
- Plant response rating, Pigweed [2, 19]: 0
- Plant response rating (0 to 100), Pigweed ([2]; preemergence): 0
- Plant response rating, Pigweed [2, 20]: 100
- Plant response rating, Crabgrass [3, 18]: 100
- Plant response rating, Crabgrass [3, 19]: 100
- Plant response rating (0 to 100), Crabgrass ([3]; preemergence): 100
- Plant response rating, Crabgrass [3, 20]: 100
- Plant response rating, Cocklebur [4, 18]: 60
- Plant response rating, Cocklebur [4, 19]: 20
- Plant response rating, Cocklebur [4, 20]: 20
- Plant response rating, Surinam grass [5, 18]: 100
- Plant response rating, Surinam grass [5, 19]: 0
- Plant response rating (0 to 100), Surinam grass ([5]; preemergence): 90
- Plant response rating, Surinam grass [5, 20]: 80
- Plant response rating, Ragweed, Common [6, 18]: 70
- Plant response rating, Ragweed, Common [6, 19]: 0
- Plant response rating (0 to 100), Ragweed, Common ([6]; preemergence): 30
- Plant response rating, Ragweed, Common [6, 20]: 0
- Plant response rating, Nightshade (Nightshade; [19]): 0
- Plant response rating, Nightshade (Nightshade; [21]): 0
- Plant response rating, Nightshade (Nightshade; Rate 500 g/ha, scale 0 to 100): 70
- Plant response rating, Soybean (soybean (Glycine max); [18]): 40
- Plant response rating (0 to 100), Soybean (soybean (Glycine max); preemergence): 40
- Plant response rating, Soybean (soybean (Glycine max); [20]): 20
- Plant response rating, Goosegrass [7, 18]: 100
- Plant response rating, Goosegrass [7, 19]: 90
- Plant response rating (0 to 100), Goosegrass ([7]; preemergence): 100
- Plant response rating, Goosegrass [7, 20]: 100
- Plant response rating, Lambsquarters [8, 18]: 100
- Plant response rating, Lambsquarters [8, 19]: 100
- Plant response rating (0 to 100), Lambsquarters ([8]; preemergence): 100
- Plant response rating, Lambsquarters [8, 20]: 100
- Plant response rating, Barnyardgrass [9, 22]: 100
- Plant response rating, Barnyardgrass [9, 20]: 100
- Plant response rating, Morningglory [10, 22]: 60
- Plant response rating, Velvetleaf [11, 22]: 0
- Plant response rating, Rice (rice (Oryza saliva); [22]): 100
- Plant response rating, Pigweed [12, 22]: 100
- Plant response rating, Crabgrass [13, 22]: 100
- Plant response rating, Crabgrass [13, 20]: 100
- Plant response rating, Cocklebur [14, 22]: 0
- Plant response rating, Cocklebur [14, 20]: 0
- Plant response rating, Surinam grass [15, 22]: 90
- Plant response rating, Surinam grass [15, 20]: 60
- Plant response rating, Foxtail, Giant [16, 22]: 100
- Plant response rating, Foxtail, Giant [16, 20]: 70
- Plant response rating, Corn (corn (Zea mays); [22]): 60
- Plant response rating, Corn (corn (Zea mays); [20]): 0
- Plant response rating, Lambsquarters [17, 22]: 100
- Plant response rating, Lambsquarters [17, 20]: 100

Structure (SMILES): O=C1C(n2ccc(C3CCCCC3)n2)OCN1c1cccc(C(F)(F)F)c1 (centres unmarked) [Compound 51]
- Plant response rating, Cupgrass, Woolly [1, 18]: 100
- Plant response rating, Cupgrass, Woolly [1, 19]: 50
- Plant response rating (0 to 100), Cupgrass, Woolly ([1]; preemergence): 80
- Plant response rating, Cupgrass, Woolly [1, 20]: 50
- Plant response rating, Pigweed [2, 18]: 30
- Plant response rating (0 to 100), Pigweed ([2]; preemergence): 100
- Plant response rating, Pigweed [2, 20]: 0
- Plant response rating, Crabgrass [3, 18]: 100
- Plant response rating, Crabgrass [3, 19]: 70
- Plant response rating (0 to 100), Crabgrass ([3]; preemergence): 100
- Plant response rating, Crabgrass [3, 20]: 100
- Plant response rating, Cocklebur [4, 18]: 0
- Plant response rating, Cocklebur [4, 19]: 0
- Plant response rating (0 to 100), Cocklebur ([4]; preemergence, Rate 250 g/ha, visual evaluation after 12 to 14 days): 0
- Plant response rating, Cocklebur [4, 20]: 0
- Plant response rating, Surinam grass [5, 18]: 70
- Plant response rating, Surinam grass [5, 19]: 30
- Plant response rating (0 to 100), Surinam grass ([5]; preemergence): 70
- Plant response rating, Surinam grass [5, 20]: 30
- Plant response rating, Ragweed, Common [6, 18]: 0
- Plant response rating (0 to 100), Ragweed, Common ([6]; preemergence): 0
- Plant response rating, Ragweed, Common [6, 20]: 0
- Plant response rating, Nightshade (Nightshade; [19]): 0
- Plant response rating, Nightshade (Nightshade; [21]): 0
- Plant response rating, Nightshade (Nightshade; Rate 500 g/ha, scale 0 to 100): 60
- Plant response rating, Soybean (soybean (Glycine max); [18]): 30
- Plant response rating (0 to 100), Soybean (soybean (Glycine max); preemergence): 20
- Plant response rating, Soybean (soybean (Glycine max); [20]): 0
- Plant response rating, Goosegrass [7, 18]: 100
- Plant response rating, Goosegrass [7, 19]: 80
- Plant response rating (0 to 100), Goosegrass ([7]; preemergence): 100
- Plant response rating, Goosegrass [7, 20]: 90
- Plant response rating, Lambsquarters [8, 18]: 100
- Plant response rating, Lambsquarters [8, 19]: 60
- Plant response rating (0 to 100), Lambsquarters ([8]; preemergence): 100
- Plant response rating, Lambsquarters [8, 20]: 100
- Plant response rating, Barnyardgrass [9, 22]: 80
- Plant response rating, Barnyardgrass [9, 23]: 80
- Plant response rating, Morningglory [10, 22]: 0
- Plant response rating, Morningglory [10, 23]: 0
- Plant response rating, Velvetleaf [11, 22]: 0
- Plant response rating, Velvetleaf [11, 23]: 0
- Plant response rating, Rice (rice (Oryza saliva); [22]): 0
- Plant response rating, Rice (rice (Oryza saliva); [23]): 0
- Plant response rating, Pigweed [12, 22]: 100
- Plant response rating, Pigweed [12, 23]: 0
- Plant response rating, Crabgrass [13, 22]: 100
- Plant response rating, Crabgrass [13, 23]: 100
- Plant response rating, Cocklebur [14, 22]: 0
- Plant response rating, Cocklebur [14, 23]: 0
- Plant response rating, Surinam grass [15, 22]: 20
- Plant response rating, Surinam grass [15, 23]: 0
- Plant response rating, Foxtail, Giant [16, 22]: 50
- Plant response rating, Foxtail, Giant [16, 23]: 0
- Plant response rating, Corn (corn (Zea mays); [22]): 0
- Plant response rating, Corn (corn (Zea mays); [23]): 0
- Plant response rating, Lambsquarters [17, 22]: 100
- Plant response rating, Lambsquarters [17, 23]: 100
